Test results as given in PubChem BioAssay (NCI).
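A five-concentration, 48-hour dose response in 96-well plates underlies each endpoint, interpolated linearly between surrounding concentrations. TGI marks complete inhibition of growth.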 Where a SMILES comes first, the peptide text is derived from it.

Assays:
Assay in all cases: NCI tumour cell line growth inhibition, 48 h
HT29 colon = tested on: HT29 colon
MCF7 breast = tested on: MCF7 breast
RXF 393 renal = tested on: RXF 393 renal
M14 melanoma = tested on: M14 melanoma
PC-3 prostate = tested on: PC-3 prostate
OVCAR-5 ovarian = tested on: OVCAR-5 ovarian
BT-549 breast = tested on: BT-549 breast
SK-MEL-5 melanoma = tested on: SK-MEL-5 melanoma
SK-MEL-2 melanoma = tested on: SK-MEL-2 melanoma
SK-MEL-28 melanoma = tested on: SK-MEL-28 melanoma
DU-145 prostate = tested on: DU-145 prostate

CC(Cc1ccc2c(c1)OCO2)N(C)C(=O)C1=CCN(C)CC1 (configuration not stated)
TGI (HT29 colon): > 100 µM
TGI (MCF7 breast): > 100 µM
TGI (RXF 393 renal): > 100 µM
TGI (M14 melanoma): > 100 µM
TGI (PC-3 prostate): > 100 µM
TGI (OVCAR-5 ovarian): > 100 µM
TGI (BT-549 breast): > 100 µM
TGI (SK-MEL-5 melanoma): > 100 µM
TGI (SK-MEL-2 melanoma): > 100 µM
TGI (SK-MEL-28 melanoma): > 100 µM
TGI (DU-145 prostate): > 100 µM

CC(=O)NC(CO)C(=O)NC(Cc1ccc(O)cc1)C(=O)NCC(N)=O (stereo not drawn) (Ac-Ser-Tyr-Gly-NH2; configuration not given here)
TGI (HT29 colon): > 100 µM
TGI (MCF7 breast): > 100 µM
TGI (RXF 393 renal): > 100 µM
TGI (M14 melanoma): > 100 µM
TGI (PC-3 prostate): > 100 µM
TGI (OVCAR-5 ovarian): > 100 µM
TGI (BT-549 breast): > 100 µM
TGI (SK-MEL-5 melanoma): > 100 µM
TGI (SK-MEL-2 melanoma): > 100 µM
TGI (SK-MEL-28 melanoma): > 100 µM
TGI (DU-145 prostate): > 100 µM

CCOC(=O)NC(=S)NC(C)c1ccccc1 (configuration not stated)
TGI (HT29 colon): > 100 µM
TGI (MCF7 breast): > 100 µM
TGI (RXF 393 renal): > 100 µM
TGI (M14 melanoma): > 100 µM
TGI (PC-3 prostate): > 100 µM
TGI (OVCAR-5 ovarian): > 100 µM
TGI (BT-549 breast): > 100 µM
TGI (SK-MEL-5 melanoma): > 100 µM
TGI (SK-MEL-2 melanoma): > 100 µM
TGI (SK-MEL-28 melanoma): > 100 µM
TGI (DU-145 prostate): > 100 µM

CCOP(=O)(OCC)C(=C1C=C(C(C)(C)C)C(=O)C(C(C)(C)C)=C1)P(=O)(OCC)OCC
TGI (HT29 colon): > 10 µM
TGI (MCF7 breast): > 10 µM
TGI (RXF 393 renal): > 10 µM
TGI (M14 melanoma): 4.11 µM
TGI (PC-3 prostate): > 10 µM
TGI (OVCAR-5 ovarian): > 10 µM
TGI (BT-549 breast): 5.16 µM
TGI (SK-MEL-5 melanoma): > 10 µM
TGI (SK-MEL-2 melanoma): > 10 µM
TGI (SK-MEL-28 melanoma): > 10 µM
TGI (DU-145 prostate): > 10 µM

CCCc1cc(-c2ccc(-c3cc(CCC)c(C=O)[nH]3)s2)[nH]c1C=O
TGI (HT29 colon): > 19.9 µM
TGI (MCF7 breast): > 100 µM
TGI (RXF 393 renal): > 87.9 µM
TGI (M14 melanoma): > 100 µM
TGI (PC-3 prostate): > 100 µM
TGI (OVCAR-5 ovarian): 58.7 µM
TGI (BT-549 breast): > 100 µM
TGI (SK-MEL-5 melanoma): > 100 µM
TGI (SK-MEL-2 melanoma): > 59.7 µM
TGI (SK-MEL-28 melanoma): > 100 µM
TGI (DU-145 prostate): > 100 µM

CSc1nc(-c2ccc(Cl)cc2)c(C#N)c(=O)[nH]1
TGI (HT29 colon): > 100 µM
TGI (MCF7 breast): > 100 µM
TGI (RXF 393 renal): > 100 µM
TGI (M14 melanoma): > 100 µM
TGI (PC-3 prostate): > 100 µM
TGI (OVCAR-5 ovarian): > 100 µM
TGI (BT-549 breast): > 100 µM
TGI (SK-MEL-5 melanoma): > 100 µM
TGI (SK-MEL-2 melanoma): > 100 µM
TGI (SK-MEL-28 melanoma): > 100 µM
TGI (DU-145 prostate): > 100 µM

CC(=O)Nc1nnc(S(=O)(=O)NC(=S)Nc2ccc(Cl)cc2)s1
TGI (HT29 colon): > 100 µM
TGI (MCF7 breast): > 100 µM
TGI (RXF 393 renal): > 100 µM
TGI (M14 melanoma): > 100 µM
TGI (PC-3 prostate): > 100 µM
TGI (OVCAR-5 ovarian): > 100 µM
TGI (BT-549 breast): > 100 µM
TGI (SK-MEL-5 melanoma): > 100 µM
TGI (SK-MEL-2 melanoma): > 100 µM
TGI (SK-MEL-28 melanoma): > 100 µM
TGI (DU-145 prostate): > 100 µM

N#CCN(Cc1ccccc1)[C@@H]1CCC[C@]1(O)C#Cc1ccc2c(c1)OCO2
TGI (HT29 colon): 36.1 µM
TGI (MCF7 breast): 37.9 µM
TGI (RXF 393 renal): 30.3 µM
TGI (M14 melanoma): 32 µM
TGI (PC-3 prostate): 50.7 µM
TGI (OVCAR-5 ovarian): 33.5 µM
TGI (SK-MEL-5 melanoma): 30 µM
TGI (SK-MEL-2 melanoma): 33.1 µM
TGI (SK-MEL-28 melanoma): 33.3 µM
TGI (DU-145 prostate): > 100 µM

CC1=C(C)C(=O)C(C2=C(C3=CC(=O)C(C)=C(C)C3=O)C(=O)c3ccccc3C2=O)=CC1=O
TGI (HT29 colon): 5.47 µM
TGI (RXF 393 renal): 3.38 µM
TGI (M14 melanoma): 3.64 µM
TGI (PC-3 prostate): 7.83 µM
TGI (OVCAR-5 ovarian): 32.2 µM
TGI (BT-549 breast): 7.16 µM
TGI (SK-MEL-5 melanoma): 12.6 µM
TGI (SK-MEL-2 melanoma): 5.71 µM
TGI (SK-MEL-28 melanoma): 5.03 µM
TGI (DU-145 prostate): 8.06 µM

CCOC(=O)c1c(NC(=O)c2ccc(Br)cc2)sc2c1CCCC2
TGI (HT29 colon): > 100 µM
TGI (MCF7 breast): > 100 µM
TGI (RXF 393 renal): > 100 µM
TGI (M14 melanoma): > 100 µM
TGI (PC-3 prostate): > 100 µM
TGI (OVCAR-5 ovarian): > 100 µM
TGI (BT-549 breast): > 100 µM
TGI (SK-MEL-5 melanoma): > 100 µM
TGI (SK-MEL-2 melanoma): > 100 µM
TGI (SK-MEL-28 melanoma): > 100 µM
TGI (DU-145 prostate): > 100 µM

Cn1nc(C(=O)N2CC(CCl)c3c2cc([N+](=O)[O-])c2ccccc32)cc1NC(=O)Nc1cc(C(=O)N2CC(CCl)c3c2cc([N+](=O)[O-])c2ccccc32)nn1C (configuration not stated)
TGI (MCF7 breast): > 100 µM
TGI (M14 melanoma): > 100 µM
TGI (PC-3 prostate): > 100 µM
TGI (OVCAR-5 ovarian): > 100 µM
TGI (BT-549 breast): > 100 µM
TGI (SK-MEL-5 melanoma): > 100 µM
TGI (SK-MEL-2 melanoma): > 100 µM
TGI (SK-MEL-28 melanoma): > 100 µM
TGI (DU-145 prostate): > 100 µM

CC(C)(C)N=c1n(C(C)(C)C)oc(=O)n1-c1ccccc1
TGI (HT29 colon): > 50 µM
TGI (MCF7 breast): > 50 µM
TGI (RXF 393 renal): > 50 µM
TGI (M14 melanoma): > 50 µM
TGI (PC-3 prostate): > 50 µM
TGI (OVCAR-5 ovarian): > 50 µM
TGI (SK-MEL-5 melanoma): > 50 µM
TGI (SK-MEL-2 melanoma): > 50 µM
TGI (SK-MEL-28 melanoma): > 50 µM
TGI (DU-145 prostate): > 50 µM

CSc1nc(C)c(CCCl)c(Cl)n1
TGI (HT29 colon): > 100 µM
TGI (RXF 393 renal): > 100 µM
TGI (M14 melanoma): > 100 µM
TGI (PC-3 prostate): > 100 µM
TGI (BT-549 breast): > 100 µM
TGI (SK-MEL-5 melanoma): > 100 µM
TGI (SK-MEL-28 melanoma): > 100 µM
TGI (DU-145 prostate): > 100 µM

Cc1ccc(F)c2c(=O)cc(-c3ccccc3)[nH]c12
TGI (HT29 colon): > 100 µM
TGI (RXF 393 renal): > 100 µM
TGI (M14 melanoma): > 100 µM
TGI (OVCAR-5 ovarian): > 100 µM
TGI (SK-MEL-5 melanoma): > 100 µM
TGI (SK-MEL-2 melanoma): > 100 µM
TGI (SK-MEL-28 melanoma): > 100 µM

Nc1cc(N)c(N=Nc2cccc3c(S(=O)(=O)O)cccc23)cc1N=Nc1cc([N+](=O)[O-])ccc1O
TGI (HT29 colon): > 100 µM
TGI (MCF7 breast): > 100 µM
TGI (RXF 393 renal): > 100 µM
TGI (M14 melanoma): > 100 µM
TGI (PC-3 prostate): > 100 µM
TGI (OVCAR-5 ovarian): 93.9 µM
TGI (BT-549 breast): > 100 µM
TGI (SK-MEL-5 melanoma): 47.2 µM
TGI (SK-MEL-2 melanoma): > 100 µM
TGI (DU-145 prostate): > 100 µM

CCc1n[nH]c(=S)n1/N=C\c1ccc(-c2ccccc2[N+](=O)[O-])o1
TGI (HT29 colon): > 100 µM
TGI (MCF7 breast): > 100 µM
TGI (RXF 393 renal): > 100 µM
TGI (M14 melanoma): > 100 µM
TGI (PC-3 prostate): > 100 µM
TGI (OVCAR-5 ovarian): > 100 µM
TGI (BT-549 breast): > 100 µM
TGI (SK-MEL-5 melanoma): 33.7 µM
TGI (SK-MEL-2 melanoma): > 100 µM
TGI (DU-145 prostate): > 100 µM

COc1ccccc1Cn1[nH]c(=O)c2cc([N+](=O)[O-])ccc21
TGI (HT29 colon): > 100 µM
TGI (RXF 393 renal): 82.6 µM
TGI (M14 melanoma): > 100 µM
TGI (OVCAR-5 ovarian): > 100 µM
TGI (SK-MEL-5 melanoma): > 100 µM
TGI (SK-MEL-2 melanoma): > 100 µM
TGI (SK-MEL-28 melanoma): > 100 µM
TGI (DU-145 prostate): > 100 µM

CC(=O)Oc1cc(S(=O)(=O)Nc2n[nH]c(N)n2)c(S)cc1Cl
TGI (HT29 colon): > 100 µM
TGI (MCF7 breast): > 100 µM
TGI (M14 melanoma): > 100 µM
TGI (PC-3 prostate): > 100 µM
TGI (OVCAR-5 ovarian): > 100 µM
TGI (BT-549 breast): > 100 µM
TGI (SK-MEL-5 melanoma): > 100 µM
TGI (SK-MEL-2 melanoma): > 100 µM
TGI (SK-MEL-28 melanoma): > 100 µM
TGI (DU-145 prostate): > 100 µM

CN(C)C(=O)Oc1ccc(C(=S)Nc2ccccc2)cc1Br
TGI (HT29 colon): 65.1 µM
TGI (MCF7 breast): > 100 µM
TGI (M14 melanoma): 39.8 µM
TGI (PC-3 prostate): > 100 µM
TGI (OVCAR-5 ovarian): > 100 µM
TGI (BT-549 breast): 68.7 µM
TGI (SK-MEL-5 melanoma): 32.2 µM
TGI (SK-MEL-2 melanoma): 71.5 µM
TGI (SK-MEL-28 melanoma): > 100 µM
TGI (DU-145 prostate): > 100 µM

CC(C)c1cccc(C(C)C)c1NC(=O)C(=O)C1SC(=S)NC1=O (configuration not stated)
TGI (HT29 colon): > 100 µM
TGI (RXF 393 renal): > 100 µM
TGI (M14 melanoma): > 100 µM
TGI (OVCAR-5 ovarian): > 100 µM
TGI (SK-MEL-5 melanoma): > 100 µM
TGI (SK-MEL-2 melanoma): > 100 µM
TGI (SK-MEL-28 melanoma): > 100 µM
